Laboratory results: US20210371817A1, “COMPOSITIONS AND METHODS FOR PRECISE PATTERNING OF POSTERIOR NEUROECTODERM FROM HUMAN PLURIPOTENT STEM CELLS” (WISCONSIN ALUMNI RESEARCH FOUNDATION, priority 2013, published 2021)

Key:
[1] = test system: H9 hESCs; experiment: HOX, OTX2 and T gene expression by RT-PCR/qPCR during hESC differentiation with morphogens; format: cell-based, human; settings: neuromesodermal state
Procedure: hPSC differentiation. hPSCs were washed once with phosphate-buffered saline (PBS; Invitrogen), dissociated with ACCUTASE® (Invitrogen) for 3 min, and collected by centrifugation. hPSCs were then seeded onto VTN-NC-coated plates in E8 medium containing 10 μM ROCK inhibitor (Y27632; R&D Systems). Seeding density was 2×10^5 cells/cm^2. The following day, the cells were switched to E6 medium (same composition as E8 medium minus FGF2 and TGFβ 1). Morphogen treatments were then carried out according to the figures in the text. Cells were supplemented with FGF8b (100-200 ng/ml; Peprotech), CHIR99021 (3-6 μM; Tocris), and/or RA (3 μM; Sigma).
Reverse transcriptase polymerase chain reaction (RT-PCR). Total RNA was extracted from cells using TRIZOL® reagent (Invitrogen) according to the manufacturer's instructions. RNA was then subjected to reverse-transcription using a Thermoscript™ RT-PCR kit (Invitrogen) in a 20 μL mixture according to the manufacturer's instructions. The resulting cDNA was then amplified in a 25 μL mixture containing 10×PCR buffer, 0.2 mM dNTP, 1.5 mM MgCl2, 0.5 μM of each primer, and 1 U Taq DNA polymerase (Invitrogen). Amplified products were resolved on 2% agarose gels containing SYBR Safe (Invitrogen) and visualized with a VersaDoc (BioRad). Primer sequences can be found in Table 3. All amplifications were carried out for 35 cycles. HOXC5 and HOXC6 were amplified at 58° C., all others with an annealing temperature of 55° C.
Propagation and differentiation of neuromesodermal progenitors. H9 hESCs (passage 25-45), H9 ishcat2 hESCs (passage 33-43), and IMR90-4 iPSCs (passage 31-40) were maintained in E8 medium on MATRIGEL© (BD Biosciences) as previously described. To initiate differentiation, hPSCs were passaged with ACCUTASE© (Life Technologies) onto vitronectin (VTN-NC)-coated plates at a density of 1×10^5 cells/cm^2 as previously described. The following day, cells were changed to E6 medium. 24 h later, cells were changed to E6 medium containing 200 ng/ml FGF8b (Peprotech). 24 h later, cells were washed once with 2 ml PBS, treated with ACCUTASE® for 2 min, and removed from the surface by gentle pipetting. After collection by centrifugation, cells were gently resuspended in E6 medium containing 200 ng/ml FGF8b and CHIR99021 (CHIR, concentration varied depending on cell line; Tocris) and re-seeded on VTN-NC-coated plates at a density of 1.5×10^5 cells/cm^2. Medium was not changed until 48 h after passaging. This passaging process was repeated on day 3 of CHIR 99021 treatment (re-seed density of 1.2×10^5 cells/cm^2) if extended neuromesodermal propagation was required, and 50 ng/ml GDF11 (Peprotech) was added on day 4 of CHIR 99021 treatment to initiate lumbar patterning. Cells were changed to E6 medium containing 1 μM retinoic acid (RA; Sigma) to facilitate neural transition.
qPCR. Total RNA was extracted from cultured cells using TRIZOL® (Life Technologies) according to the manufacturer's instructions. After isolation, 2-5 μg of total RNA was immediately subjected to reverse transcription using the Thermoscript™ RT-PCR kit (Life Technologies) in a 20 μL reaction according to the manufacturer's instructions. […] For all experiments, ΔΔCt values for each gene were calculated relative to ribosomal protein S18 (RPS18) RNA levels and converted to fold difference assuming 100% primer efficiency, then normalized to maximum expression levels as indicated in each figure legend. […]

[2] = test system: neuromesodermal cells; experiment: Pax6 and HoxD10 expression after GDF11 with or without dorsomorphin, then RA; format: cell-based, human; settings: GDF11 present in the neuromesodermal morphogen cocktail
Description: (FIG. 7A) Timeline of differentiation. (FIG. 7B) qPCR assessment of lumbar/sacral gene expression at day 12. A minimum concentration of GDF11 is required to activate HoxD10 and HoxA11. Each gene is normalized to the maximum GDF11 dose. Error bars are standard deviation calculated from duplicate reactions. (FIG. 7C) Expression of Pax6 in response to increased GDF11 concentrations. Data were collected by flow cytometry and represented as mean±standard deviation calculated from two biological replicates. Sox2 was uniformly expressed regardless of GDF11 treatment (data not shown). […] Grey histograms, IgG control; Red histograms, Pax6. Data are representative of two biological replicates. […] Percentages were quantified as HoxD10 labeling relative to DAPI-stained nuclei (>2500 total cells counted per sample). Scale bars, 100 μm
After neural tube closure in vivo, opposing gradients of TGFβ and SHH signaling produce distinct dorsal and ventral domains from which sensory neurons, interneurons, and motor neurons arise. Pax6, which has been identified as a neuroectoderm fate determinant, is expressed throughout most of the neural tube but is absent from the most dorsal and ventral domains. […] The ability of GDF11 to control rostral/caudal patterning is mediated by signaling via ALK5 and activation of the SMAD2/3 complex. […]

## GDF11: Growth differentiation factor 11, a TGFβ family member
[1]; data not shown
  Expression of hindbrain/cervical genes HOXA4, HOXB4, HOXC6: did not repress
[1]; qPCR, GDF11 50 ng/ml
  Activation of lumbar and sacral HOX paralogs: necessary for robust activation of lumbar (HOX10) and sacral (HOX11) paralogs
[2]
  Pax6 expression after RA: decreased
